Laboratory results taken from PubChem BioAssay AID256 (DTP/NCI, 2004).
Where “and” joins values, the source holds several entries; their conditions need not be identical. Identical values can stand only once. Toxic doses and inconclusive results are not listed.

System: CD2F1 mice, L1210 leukemia ip, survival T/C
Test: NCI In Vivo Anticancer Drug Screen. Data for tumor model L1210 Leukemia (intraperitoneal) in CD2F1 (CDF1) mice
Conditions: higher = longer survival
Procedure, shortened: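 Ratio T/C, where T is the treated-group value and C the vehicle-dosed control value, from mice implanted with a transplantable tumor.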

[1] = endpoint: mean survival time, dose: 25.0 mg/kg/injection, schedule: Q01DX009 (ip), vehicle: saline
[2] = endpoint: mean survival time, dose: 50.0 mg/kg/injection, schedule: Q01DX009 (ip), vehicle: saline
[3] = endpoint: mean survival time, dose: 50.0 mg/kg/injection, schedule: Q04DX002 (ip), vehicle: saline with Tween-80
[4] = endpoint: mean survival time, dose: 100.0 mg/kg/injection, schedule: Q04DX002 (ip), vehicle: saline with Tween-80
[5] = endpoint: mean survival time, dose: 200.0 mg/kg/injection, schedule: Q01DX001 (ip), vehicle: saline with Tween-80
[6] = endpoint: mean survival time, dose: 200.0 mg/kg/injection, schedule: Q04DX002 (ip), vehicle: saline with Tween-80
[7] = endpoint: mean survival time, dose: 400.0 mg/kg/injection, schedule: Q01DX001 (ip), vehicle: saline with Tween-80
[8] = endpoint: mean survival time, dose: 100.0 mg/kg/injection, schedule: Q04DX003 (ip), vehicle: saline with Tween-80
[9] = endpoint: mean survival time, dose: 200.0 mg/kg/injection, schedule: Q04DX003 (ip), vehicle: saline with Tween-80
[10] = endpoint: mean survival time, dose: 400.0 mg/kg/injection, schedule: Q04DX003 (ip), vehicle: saline with Tween-80
[11] = endpoint: mean survival time, dose: 200.0 mg/kg/injection, schedule: Q01DX009 (ip), vehicle: saline with Tween-80
[12] = endpoint: mean survival time, dose: 400.0 mg/kg/injection, schedule: Q01DX009 (ip), vehicle: saline with Tween-80
[13] = endpoint: mean survival time, dose: 100.0 mg/kg/injection, schedule: Q01DX001 (ip), vehicle: saline with Tween-80
[14] = endpoint: mean survival time, dose: 12.5 mg/kg/injection, schedule: Q01DX009 (ip), vehicle: saline with Tween-80
[15] = endpoint: mean survival time, dose: 25.0 mg/kg/injection, schedule: Q01DX009 (ip), vehicle: saline with Tween-80
[16] = endpoint: mean survival time, dose: 50.0 mg/kg/injection, schedule: Q01DX009 (ip), vehicle: saline with Tween-80
[17] = endpoint: mean survival time, dose: 100.0 mg/kg/injection, schedule: Q01DX009 (ip), vehicle: saline with Tween-80
[18] = endpoint: mean survival time, dose: 100.0 mg/kg/injection, schedule: Q01DX001 (ip), vehicle: saline
[19] = endpoint: mean survival time, dose: 200.0 mg/kg/injection, schedule: Q01DX001 (ip), vehicle: saline
[20] = endpoint: mean survival time, dose: 400.0 mg/kg/injection, schedule: Q01DX001 (ip), vehicle: saline
[21] = endpoint: mean survival time, dose: 400.0 mg/kg/injection, schedule: Q04DX002 (ip), vehicle: saline with Tween-80

C[N+]12CC3C(O)CC1CCC32 (stereo not drawn)
T/C (endpoint: mean survival time, dose: 12.0 mg/kg/injection, schedule: Q01DX001 (ip), vehicle: saline): 97 % of control
T/C (endpoint: mean survival time, dose: 12.0 mg/kg/injection, schedule: Q01DX009 (ip), vehicle: saline): 96 % of control
T/C (endpoint: mean survival time, dose: 25.0 mg/kg/injection, schedule: Q01DX001 (ip), vehicle: saline): 96 % of control
T/C [1]: 98 % of control
T/C (endpoint: mean survival time, dose: 50.0 mg/kg/injection, schedule: Q01DX001 (ip), vehicle: saline): 97 % of control
T/C [2]: 93 % of control

COc1ccc(OC)c(/C=C(/C#N)C(N)=O)c1
T/C [3]: 104 % of control
T/C [4]: 93 % of control
T/C [5]: 91 % of control
T/C [6]: 93 % of control
T/C [7]: 90 % of control

CC(C)C1(NC(=O)C2C=C3c4cccc5[nH]cc(c45)CC3N(C)C2)OC2(O)C3CCCN3C(=O)C(Cc3ccccc3)N2C1=O (stereo not drawn)
T/C (endpoint: mean survival time, dose: 50.0 mg/kg/injection, schedule: Q04DX003 (ip), vehicle: saline with Tween-80): 96 % of control
T/C [8]: 105 % of control
T/C [9]: 100 % of control

OC(COc1ccc(Cl)cc1Cl)COc1ccc(Cl)cc1Cl
T/C [8]: 95 % of control
T/C [9]: 92 % of control
T/C [10]: 93 % of control

COc1cc(/C=C/c2nc3ccccc3nc2/C=C/c2cc(OC)c(OC)c(OC)c2)cc(OC)c1OC
T/C [11]: 94 % of control
T/C [12]: 100 % of control
T/C [10]: 93 % of control

c1ccc(C2=NNC(c3ccccc3)=NN2)cc1
T/C (endpoint: mean survival time, dose: 100.0 mg/kg/injection, schedule: Q01DX001 (ip), vehicle: other): 105 % of control
T/C [13]: 101 % of control
T/C (endpoint: mean survival time, dose: 200.0 mg/kg/injection, schedule: Q01DX001 (ip), vehicle: other): 94 % of control
T/C [5]: 97 % of control
T/C (endpoint: mean survival time, dose: 400.0 mg/kg/injection, schedule: Q01DX001 (ip), vehicle: other): 103 % of control
T/C [7]: 103 % of control

c1ccc(C2=C(c3ccccn3)N=c3ccccc3=c3ccccc3=N2)nc1
T/C [13]: 101 % of control
T/C [5]: 111 % of control
T/C [7]: 93 % of control

COc1cc(Cl)ccc1NC(=O)OCCOc1ccc(Br)cc1
T/C [14]: 91 % of control
T/C [15]: 87 % of control
T/C [16]: 119 % of control and 91 % of control

C(=C\c1ccc2ccccc2n1)/c1ccc2c(c1)OCO2
T/C [17]: 96 % of control
T/C [8]: 102 % of control
T/C [11]: 96 % of control
T/C [9]: 102 % of control
T/C [12]: 95 % of control
T/C [10]: 101 % of control

COc1ccc(COC(=O)Nc2cccc3ccccc23)cc1
T/C (endpoint: mean survival time, dose: 75.0 mg/kg/injection, schedule: Q04DX002 (ip), vehicle: saline with Tween-80): 104 % of control
T/C (endpoint: mean survival time, dose: 150.0 mg/kg/injection, schedule: Q04DX002 (ip), vehicle: saline with Tween-80): 104 % of control
T/C (endpoint: mean survival time, dose: 300.0 mg/kg/injection, schedule: Q04DX002 (ip), vehicle: saline with Tween-80): 100 % of control

CC(C)CC(CC(C)C)=NNc1ccc([N+](=O)[O-])cc1[N+](=O)[O-]
T/C [18]: 100 % of control
T/C [19]: 103 % of control
T/C [20]: 100 % of control

CC[N+](C)(CC)CCOC(=O)c1ccccc1Oc1ccc(C)cc1
T/C [1]: 107 % of control
T/C [2]: 107 % of control

OCC1OC(n2cnc3c(=S)nc(NO)[nH]c32)C(O)C1O (stereo not drawn)
T/C (endpoint: mean survival time, dose: 6.25 mg/kg/injection, schedule: Q01DX005 (ip), vehicle: saline with Tween-80): 196 % of control and 237 % of control
T/C (endpoint: mean survival time, dose: 12.5 mg/kg/injection, schedule: Q01DX005 (ip), vehicle: saline with Tween-80): 164 % of control and 263 % of control
T/C (endpoint: mean survival time, dose: 25.0 mg/kg/injection, schedule: Q01DX005 (ip), vehicle: saline with Tween-80): 102 % of control
T/C (endpoint: mean survival time, dose: 50.0 mg/kg/injection, schedule: Q01DX005 (ip), vehicle: saline with Tween-80): 89 % of control

N#CC(NC(=O)NCCO)c1ccccc1 (stereo not drawn)
T/C [17]: 94 % of control
T/C [11]: 96 % of control
T/C [12]: 92 % of control

NC(=O)C(C(N)=O)c1ccnc2ccccc12
T/C (endpoint: mean survival time, dose: 6.25 mg/kg/injection, schedule: Q01DX001 (ip), vehicle: saline with Tween-80): 102 % of control
T/C (endpoint: mean survival time, dose: 6.25 mg/kg/injection, schedule: Q01DX009 (ip), vehicle: saline with Tween-80): 97 % of control
T/C (endpoint: mean survival time, dose: 12.5 mg/kg/injection, schedule: Q01DX001 (ip), vehicle: saline with Tween-80): 103 % of control
T/C [14]: 93 % of control
T/C (endpoint: mean survival time, dose: 25.0 mg/kg/injection, schedule: Q01DX001 (ip), vehicle: saline with Tween-80): 96 % of control
T/C [15]: 93 % of control

CCC(C)(CC)OC(=O)c1ccc([N+](=O)[O-])cc1
T/C [18]: 100 % of control
T/C [19]: 98 % of control
T/C [20]: 98 % of control

CSc1n[nH]c(N)n1
T/C [8]: 94 % of control
T/C [9]: 94 % of control
T/C [10]: 90 % of control

CN1C(C)(C)CC(CN2c3ccccc3Sc3ccccc32)C1(C)C (stereo not drawn)
T/C [8]: 97 % of control
T/C [9]: 104 % of control

COC(=O)Nc1cn2cc(C(=O)c3cccs3)ccc2n1
T/C (endpoint: median survival time, dose: 6.25 mg/kg/injection, schedule: Q01DX009 (ip), vehicle: Klucel (hydroxypropylcellulose) (HPC)): 104 % of control
T/C (endpoint: median survival time, dose: 12.5 mg/kg/injection, schedule: Q01DX009 (ip), vehicle: Klucel (hydroxypropylcellulose) (HPC)): 112 % of control
T/C (endpoint: median survival time, dose: 25.0 mg/kg/injection, schedule: Q01DX009 (ip), vehicle: Klucel (hydroxypropylcellulose) (HPC)): 119 % of control
T/C (endpoint: median survival time, dose: 50.0 mg/kg/injection, schedule: Q01DX009 (ip), vehicle: Klucel (hydroxypropylcellulose) (HPC)): 124 % of control

O=c1[nH]c(=O)n(O)c2nc[nH]c12
T/C [15]: 102 % of control
T/C [16]: 98 % of control

O=c1[nH]cc(Oc2ccccc2)c(=O)[nH]1
T/C (endpoint: mean survival time, dose: 50.0 mg/kg/injection, schedule: Q01DX001 (ip), vehicle: saline with Tween-80): 104 % of control
T/C [13]: 96 % of control
T/C [5]: 98 % of control

FC(F)(F)c1ccc2ccc3ccc(Cl)cc3c2c1
T/C (endpoint: mean survival time, dose: 37.5 mg/kg/injection, schedule: Q01DX009 (ip), vehicle: saline): 97 % of control
T/C (endpoint: mean survival time, dose: 75.0 mg/kg/injection, schedule: Q01DX009 (ip), vehicle: saline): 94 % of control
T/C (endpoint: mean survival time, dose: 75.0 mg/kg/injection, schedule: Q04DX003 (ip), vehicle: saline): 91 % of control
T/C (endpoint: mean survival time, dose: 150.0 mg/kg/injection, schedule: Q01DX009 (ip), vehicle: saline): 91 % of control
T/C (endpoint: mean survival time, dose: 150.0 mg/kg/injection, schedule: Q04DX003 (ip), vehicle: saline): 95 % of control
T/C (endpoint: mean survival time, dose: 300.0 mg/kg/injection, schedule: Q04DX003 (ip), vehicle: saline): 97 % of control

NC(CCCCNCC(CNCCCCC(N)C(=O)O)C(=O)O)C(=O)O (stereo not drawn)
T/C (endpoint: mean survival time, dose: 25.0 mg/kg/injection, schedule: Q04DX002 (ip), vehicle: saline with Tween-80): 105 % of control
T/C [3]: 98 % of control
T/C [4]: 94 % of control

O=CN(SSN(C=O)C1CCCCC1)C1CCCCC1
T/C [14]: 95 % of control and 103 % of control
T/C [15]: 100 % of control and 108 % of control
T/C [16]: 94 % of control and 105 % of control
T/C [17]: 94 % of control and 98 % of control
T/C [11]: 94 % of control and 103 % of control
T/C [12]: 93 % of control and 102 % of control

NC(=O)N/N=C1/CC2CC1C1C=CCC21 (stereo not drawn)
T/C [4]: 102 % of control
T/C [6]: 107 % of control
T/C [21]: 98 % of control

CCCC(=O)/C=C\c1ccccc1
T/C [3]: 102 % of control
T/C [4]: 102 % of control
T/C [6]: 91 % of control
T/C [21]: 94 % of control
